Source: the supplement of paper PMC8882468

How the values were obtained:
HCI-016 = organoid from a triple-negative breast cancer xenograft; experiment: CTG-3D luminescence at 96 h relative to day-0 seeding control (ratio to day 0); higher = more growth / less cytotoxicity
Protocol: (§1)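 PDxO 3D drug screen (set 2), 8-point dose, 96 h; CTG-3D luminescence normalised to day-0 seeding control (mean of 4 wells each).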

HCI-027 = organoid from a triple-negative breast cancer xenograft; experiment: as above
Protocol: as §1

CC/C(=C(\c1ccc(O)cc1)c1ccc(OCCN(C)C)cc1)c1ccccc1 [4-hydroxytamoxifen]
CTG-3D luminescence at 96 h
Details | 12.5 pM | 0.00025 µM | 0.005 µM | 0.1 µM | 1 µM | 10 µM | 100 µM | 625 fM
HCI-016, days in culture: 305 | 2.77 | 4.59 | 2.65 | 4.18 | 2.47 | 1.67 | 0.0261 | 4.99
HCI-016, days in culture: 327 | 0.944 | 0.968 | 2.39 | 2.26 | 1.5 | 1.58 | 0.0115 | 1.27
HCI-016, days in culture: 341 | 2.5 | 1.22 | 2.22 | 1.54 | 1.41 | 1.48 | 0.00227 | 2.1
HCI-016, days in culture: 397 | 1.82 | 2.24 | 1.56 | 1.83 | 1.91 | 2.17 | 0.0134 | 2
HCI-027, days in culture: 145 | 1.3 | 2.12 | 1.24 | 1.83 | 1.18 | 0.699 | 0.00408 | 1.73
HCI-027, days in culture: 158 | 2.04 | 2.76 | 2.17 | 2.08 | 1.97 | 1.36 | 0.00947 | 4.26
HCI-027, days in culture: 164 | 1.94 | 2.01 | 1.46 | 2.16 | 1.19 | 1.86 | 0.0151 | 1.7
HCI-027, days in culture: 176 | 3.64 | 3.33 | 1.45 | 1.08 | 2.78 | 0.382 | 0.00762 | 2.5
HCI-027, days in culture: 186 | 1.39 | 2.63 | 2.25 | 1.45 | 0.447 | 0.154 | 0.0028 | 2.27
